# Where “and” joins values, the source holds several entries; their conditions need not be identical. Equal values may be shown once. Read-outs that look alike come from different tables or passages of the source.
# Key:
# HEC265 = assay: 4 day proliferation assay (CellTiter-Glo); details: Homo sapiens, 96 h, read-out: 4 day assay GI50
# [1] = HRO761 blood PK in SW48 tumour-bearing mice; format: in vivo, mouse; details: for concentration at 4 h / concentration at 8 h / concentration at 0.5 h / concentration at 1 h / concentration at 2 h / concentration at 24 h / AUC: female, whole blood; for concentration at 4 h / concentration at 8 h / concentration at 0.5 h / concentration at 1 h / concentration at 2 h / concentration at 24 h: Free HRO761 blood concentration
# Method: All animal studies were conducted in accordance with ethics and procedures covered by permit BS-2275 and BS-1975 issued by the Kantonales Veterinäramt Basel-Stadt and in strict adherence to guidelines of the Eidgenössisches Tierschutzgesetz and the Eidgenössische Tierschutzverordnung, Switzerland. All animal studies were approved by the internal ethics committee. All animals had access to food and water ad libitum and were identified with transponders. They were housed in a specific-pathogen-free facility in IVC racks under a 12 h–12 h light–dark cycle. To establish cell-line-derived xenograft models, 6–7-week-old female athymic nude (Crl:NU(NCr)-Foxn1^nu) or SCID-BEIGE (CB17.Cg-PrkdcscidLystbg-J/Crl) mice from Charles River were engrafted subcutaneously with 5 million tumour cells in HBSS (H6648, Sigma-Aldrich). For SNU-407, Lovo, IM95, RL95.2, Ishikawa and IGROV-1, the cells were concentrated in 50% Matrigel (354234, Corning). Patient-derived xenografts were induced and expanded by transplantation as previously described. […] For the efficacy experiment, mice were randomized into groups (n = 5–6) for a mean tumour size of 100–150 mm^3. […] Blood samples were collected on day 7 and 91. […] Tumour responses are reported with the measures of tumour volumes from the treatment start. […] Animals were randomized (n = 3) and tumour samples were collected at 0, 1, 4, 8 and 24 h on the first day and then collected 4 h after the last treatment on day 3, 8, 10, 14 (including a 24 h timepoint), 17 and 21. Tumours were excised, weighed, either frozen in liquid nitrogen and cryogenic dry pulverized with the CryoPrep system (model CP-02, Covaris) or processed to FFPE after fixation. […] On day 12, blood samples were collected for PK analysis. On the last day (3 h after the last treatment), tumours were excised, weighed, frozen in liquid nitrogen and cryogenic dry pulverized for PD analysis.
# PK parameters were determined by non-compartmental analysis. Intravenous bolus studies in mouse, rat and dog were performed at 1, 1 and 0.1 mg per kg respectively (Extended Data Table 1).
# LIM2405 = assay: CFA 10-14 day clonogenic assay; format: cell-based; details: Homo sapiens
# HEC151 = assay: CFA 10-14 day clonogenic assay; format: cell-based; details: Homo sapiens
# HEC6 = assay: CFA 10-14 day clonogenic assay; format: cell-based; details: Homo sapiens, HEC-6
# MSI cancer cells = assay: Clonogenic assay, 10-to-14-day; format: cell-based; details: Homo sapiens, 10-to-14-day clonogenic assay
# CL34 = assay: 4 day proliferation assay (CellTiter-Glo); details: Homo sapiens, 96 h, read-out: 4 day assay GI50
# SNUC5 = assay: CFA 10-14 day clonogenic assay; format: cell-based; details: Homo sapiens
smiles,measurement,setting,value
CCc1c(N2CCN(C(=O)c3ncnc(C)c3O)CC2)c(=O)n2nc(C3=CCOCC3)nc2n1CC(=O)Nc1ccc(C(F)(F)F)cc1Cl [HRO761],GI50,HEC265,≥ 10000 nM
same,Free HRO761 blood concentration,"[1]; 20mg/kg po, qd, 0.5 h post treatment, single mouse",1.505 µM and 0.703 µM and 1.278 µM
same,Free HRO761 blood concentration,"[1]; 20mg/kg po, qd, 1 h, single mouse",0.984 µM and 0.274 µM and 0.743 µM
same,Free HRO761 blood concentration,"[1]; 20mg/kg po, qd, 2 h, single mouse",0.245 µM and 0.085 µM and 0.166 µM
same,Free HRO761 blood concentration,"[1]; 20mg/kg po, qd, 4 h, single mouse",0.104 µM and 0.131 µM
same,Free HRO761 blood concentration,"[1]; 20mg/kg po, qd, 8 h, single mouse",0.145 µM and 0.122 µM
same,Free HRO761 blood concentration,"[1]; 20mg/kg po, qd, 24 h, single mouse",0.008 µM and 0.006 µM and 0.002 µM
same,Free HRO761 blood concentration,"[1]; 40mg/kg, 0.5 h, single mouse",3.970 µM and 2.544 µM
same,Free HRO761 blood concentration,"[1]; 40mg/kg, 1 h, single mouse",2.426 µM and 1.276 µM
same,Free HRO761 blood concentration,"[1]; 40mg/kg, 2 h, single mouse",0.355 µM and 0.442 µM and 0.166 µM
same,Free HRO761 blood concentration,"[1]; 40mg/kg, 4 h, single mouse",0.164 µM and 0.089 µM
same,Free HRO761 blood concentration,"[1]; 40mg/kg, 8 h, single mouse",0.251 µM and 0.168 µM
same,Free HRO761 blood concentration,"[1]; 40mg/kg, 24 h, single mouse",0.004 µM and 0.015 µM and 0.019 µM
same,Free HRO761 blood concentration,"[1]; 60mg/kg, 0.5 h, single mouse",5.178 µM and 5.802 µM and 12.609 µM
same,Free HRO761 blood concentration,"[1]; 60mg/kg, 1 h, single mouse",2.372 µM and 2.688 µM and 8.368 µM
same,Free HRO761 blood concentration,"[1]; 60mg/kg, 2 h, single mouse",0.484 µM and 0.423 µM and 1.801 µM
same,Free HRO761 blood concentration,"[1]; 60mg/kg, 4 h, single mouse",0.455 µM and 0.299 µM and 0.197 µM
same,Free HRO761 blood concentration,"[1]; 60mg/kg, 8 h, single mouse",0.237 µM and 0.241 µM
same,Free HRO761 blood concentration,"[1]; 60mg/kg, 24 h, single mouse",0.050 µM and 0.025 µM and 0.021 µM
same,Free HRO761 blood concentration,"[1]; 120mg/kg, 0.5 h, single mouse",17.511 µM and 15.342 µM
same,Free HRO761 blood concentration,"[1]; 120mg/kg, 1 h, single mouse",10.912 µM and 17.320 µM
same,Free HRO761 blood concentration,"[1]; 120mg/kg, 2 h, single mouse",3.175 µM and 5.721 µM
same,Free HRO761 blood concentration,"[1]; 120mg/kg, 4 h, single mouse",0.693 µM and 0.631 µM
same,Free HRO761 blood concentration,"[1]; 120mg/kg, 8 h, single mouse",0.515 µM and 0.718 µM
same,Free HRO761 blood concentration,"[1]; 120mg/kg, 24 h, single mouse",0.210 µM and 0.035 µM and 0.095 µM
same,concentration at 4 h,"[1]; mouse, oral, 20 mg/kg, 20mg/kg po, qd, 4 h, single mouse",176 nM
same,concentration at 8 h,"[1]; mouse, oral, 20 mg/kg, 20mg/kg po, qd, 8 h, single mouse",154 nM
same,concentration at 0.5 h,"[1]; mouse, oral, 20 mg/kg, Mean, 20mg/kg po, qd, 0.5 h",1160 nM
same,concentration at 1 h,"[1]; mouse, oral, 20 mg/kg, Mean, 20mg/kg po, qd, 1 h",670 nM
same,concentration at 2 h,"[1]; mouse, oral, 20 mg/kg, Mean, 20mg/kg po, qd, 2 h",170 nM
same,concentration at 4 h,"[1]; mouse, oral, 20 mg/kg, Mean, 20mg/kg po, qd, 4 h",140 nM
same,concentration at 8 h,"[1]; mouse, oral, 20 mg/kg, Mean, 20mg/kg po, qd, 8 h",140 nM
same,concentration at 24 h,"[1]; mouse, oral, 20 mg/kg, Mean, 20mg/kg po, qd, 24 h",5.15 nM
same,concentration at 0.5 h,"[1]; mouse, oral, 40 mg/kg, Mean, 0.5 h",3140 nM
same,concentration at 1 h,"[1]; mouse, oral, 40 mg/kg, Mean, 1 h",1860 nM
same,concentration at 2 h,"[1]; mouse, oral, 40 mg/kg, Mean, 2 h",320 nM
same,concentration at 4 h,"[1]; mouse, oral, 40 mg/kg, Mean, 4 h",130 nM
same,concentration at 8 h,"[1]; mouse, oral, 40 mg/kg, Mean, 8 h",200 nM
same,concentration at 24 h,"[1]; mouse, oral, 40 mg/kg, Mean, 24 h",12.9 nM
same,concentration at 0.5 h,"[1]; mouse, oral, 40 mg/kg, 0.5 h, single mouse",2910 nM
same,concentration at 1 h,"[1]; mouse, oral, 40 mg/kg, 1 h, single mouse",1890 nM
same,concentration at 4 h,"[1]; mouse, oral, 40 mg/kg, 4 h, single mouse",124 nM
same,concentration at 8 h,"[1]; mouse, oral, 40 mg/kg, 8 h, single mouse",178 nM
same,concentration at 0.5 h,"[1]; mouse, oral, 60 mg/kg, Mean, 0.5 h",7860 nM
same,concentration at 1 h,"[1]; mouse, oral, 60 mg/kg, Mean, 1 h",4480 nM
same,concentration at 2 h,"[1]; mouse, oral, 60 mg/kg, Mean, 2 h",900 nM
same,concentration at 4 h,"[1]; mouse, oral, 60 mg/kg, Mean, 4 h",320 nM
same,concentration at 8 h,"[1]; mouse, oral, 60 mg/kg, Mean, 8 h",250 nM
same,concentration at 24 h,"[1]; mouse, oral, 60 mg/kg, Mean, 24 h",32.2 nM
same,concentration at 8 h,"[1]; mouse, oral, 60 mg/kg, 8 h, single mouse",276 nM
same,concentration at 0.5 h,"[1]; mouse, oral, 120 mg/kg, Mean, 0.5 h",15900 nM
same,concentration at 1 h,"[1]; mouse, oral, 120 mg/kg, Mean, 1 h",13900 nM
same,concentration at 2 h,"[1]; mouse, oral, 120 mg/kg, Mean, 2 h",4010 nM
same,concentration at 4 h,"[1]; mouse, oral, 120 mg/kg, Mean, 4 h",610 nM
same,concentration at 8 h,"[1]; mouse, oral, 120 mg/kg, Mean, 8 h",620 nM
same,concentration at 24 h,"[1]; mouse, oral, 120 mg/kg, Mean, 24 h",110 nM
same,concentration at 0.5 h,"[1]; mouse, oral, 120 mg/kg, 0.5 h, single mouse",14800 nM
same,concentration at 1 h,"[1]; mouse, oral, 120 mg/kg, 1 h, single mouse",13500 nM
same,concentration at 2 h,"[1]; mouse, oral, 120 mg/kg, 2 h, single mouse",3120 nM
same,concentration at 4 h,"[1]; mouse, oral, 120 mg/kg, 4 h, single mouse",496 nM
same,concentration at 8 h,"[1]; mouse, oral, 120 mg/kg, 8 h, single mouse",620 nM
same,AUC,"[1]; mouse, po, 10 mg/kg, read-out: AUCb, u above GI90, u",0.09 µM·h
same,AUC,"[1]; mouse, po, 20 mg/kg, read-out: AUCb, u above GI90, u",0.52 µM·h
same,AUC,"[1]; mouse, po, 30 mg/kg, read-out: AUCb, u above GI90, u",2.14 µM·h
same,AUC,"[1]; mouse, po, 40 mg/kg, read-out: AUCb, u above GI90, u",4 µM·h
same,AUC,"[1]; mouse, po, 60 mg/kg, read-out: AUCb, u above GI90, u",6.08 µM·h
same,AUC,"[1]; mouse, po, 120 mg/kg, read-out: AUCb, u above GI90, u",27 µM·h
same,AUC,"[1]; oral, mouse at 40 mg/kg qd, read-out: Efficacious daily AUC",31 µM·h
same,GI50,LIM2405,452 nM
same,GI50,HEC151,303 nM
same,GI50,HEC6,16 nM
same,GI50,MSI cancer cells,50 to 1000 nM
same,GI50,CL34,231 nM
same,GI50,SNUC5,418 nM

# Reference: publication PMC11078746 (Nature, 2024)
